This note sets out measurements from patent US10201533B2, “Substituted quinolizine derivatives useful as HIV integrase inhibitors” (priority 2013, dated 2019).

The test system of the assay is HIV-1 (NL4-3 strain). The experiment in a line: microbe, parasite or virus in culture. The assay is classed as cell-based. The following applies: MT4-GFP cells infected with HIV-1 NL4-3, IP or IC50 from 4-parameter dose response curve.
[1] abbreviates: Human immunodeficiency virus 1, NL43, 0% normal human serum (NHS), read-out: WILD TYPE CELL ASSAY Viking IP (0% NHS).
Where [2] appears, read: Human immunodeficiency virus 1, NL43, 100% normal human serum (NHS), read-out: WILD TYPE CELL ASSAY Viking IP (100% NHS).
Setting [3] is: 0% normal human serum (NHS), read-out: WILD TYPE CELL ASSAY Viking IP (0% NHS).
The mark [4] stands for this setting: 100% normal human serum (NHS), read-out: WILD TYPE CELL ASSAY Viking IP (100% NHS).

Read-outs that look alike come from different tables or passages of the source.

Turning to `CO[C@]12CCCCC[C@@]1(C)C(=O)c1c(O)c(=O)c(C(=O)NCc3ccc(F)cc3F)cn1C2` [Compound 119], the IC50 reads like this: under setting [1], 2.1 nM; under setting [2], 2060 nM. With `COCCCO[C@]12CCCC[C@@]1(C)C(=O)c1c(O)c(=O)c(C(=O)NCc3ccc(F)cc3F)cn1C2` [Compound 117], the IC50 amounted to 2.5 nM under setting [1] and 1440 nM under setting [2].

As to `C[C@@]12CCCO[C@@H]1Cn1cc(C(=O)NCc3ccc(F)cc3)c(=O)c(O)c1C2=O` (single isomer, unassigned) [Compound 18], the IC50 by setting is: under setting [1], 8.7 nM; under setting [2], 315 nM. On the same counts, the results for `CC12CCCC1(O)Cn1cc(C(=O)NCc3ccc(F)cc3F)c(=O)c(O)c1C2=O` (stereo not shown) [Compound 104] are 3.6 nM and 343 nM. Take `CC1(C)CCn2cc(C(=O)NCc3cc4ccccn4n3)c(=O)c(O)c2C1=O` [Compound 3]: under setting [1], the IC50 turned out to be 6.5 nM. `COCC[C@]1(C)C(=O)c2c(O)c(=O)c(C(=O)NCc3cccc(Cl)c3F)cn2C[C@@H]1OC` [Compound 65]: the IC50 under setting [3] worked out at 0.8 nM and the IC50 under setting [4] turned out to be 34 nM. As for `C[C@]12CC=CCO[C@@H]1Cn1cc(C(=O)NCc3ccc(F)cc3F)c(=O)c(O)c1C2=O` [Compound 50], the IC50 came out at 1.6 nM under setting [3] and 293 nM under setting [4]. For `COCCC[C@]1(C)C(=O)c2c(O)c(=O)c(C(=O)NCc3cccc(Cl)c3F)cn2C[C@@H]1OC` [Compound 79], the IC50 reads like this: under setting [3], 1 nM; under setting [4], 662 nM.

Take `CC1(O)CCn2cc(C(=O)NCc3ccc(F)cc3F)c(=O)c(O)c2C1=O` (racemic) [Compound 53]: the IC50 under setting [1] was determined as 64 nM and the IC50 under setting [2] is over 8400 nM. On the same counts, the results for `CC[C@]12CCCO[C@@H]1Cn1cc(C(=O)NCc3ccc(F)cc3F)c(=O)c(O)c1C2=O` [Compound 120] are 0.8 nM and 116 nM. For `C[C@]12CCCO[C@H]1Cn1cc(C(=O)NCc3ccc(F)c(Br)c3)c(=O)c(O)c1C2=O` (single isomer, unassigned) [Compound 25], in that order: 4.2 nM and over 8400 nM. As to `C[C@]12CCCN[C@H]1Cn1cc(C(=O)NCc3ccc(F)cc3F)c(=O)c(O)c1C2=O` [Compound 122], the IC50 came out at 3.3 nM under setting [3] and 35 nM under setting [4]. On the same counts, the results for `C[C@]12CCCO[C@@H]1Cn1cc(C(=O)NCc3ccc(F)cc3F)c(=O)c(O)c1C2=O` (single isomer, unassigned) [Compound 34] are 1.7 nM and 1500 nM. With `C[C@]12CCCO[C@@H]1Cn1cc(C(=O)NCc3cccc(Cl)c3F)c(=O)c(O)c1C2=O` (single isomer, unassigned) [Compound 36], the IC50 came out at 0.6 nM under setting [3] and 1400 nM under setting [4]. For `COCCC[C@]1(C)C(=O)c2c(O)c(=O)c(C(=O)NCc3ccc(F)cc3F)cn2C[C@@H]1OC` [Compound 74], in that order: 4 nM and 262 nM. With `COCC[C@]1(C)C(=O)c2c(O)c(=O)c(C(=O)NCc3ccccc3F)cn2C[C@@H]1OC` [Compound 68], the IC50 is, setting by setting: under setting [4], 604 nM; under setting [1], 1.8 nM. With `COCCC[C@]1(C)C(=O)c2c(O)c(=O)c(C(=O)NCc3ccccc3F)cn2C[C@@H]1OC` [Compound 86], the IC50 runs as follows: under setting [3], 1.3 nM; under setting [4], 18 nM. On to `C[C@@]12CCCCO[C@@H]1Cn1cc(C(=O)NCc3c(F)cc(F)cc3F)c(=O)c(O)c1C2=O` (single isomer, unassigned) [Compound 42], for which the IC50 by setting is: under setting [3], 2.1 nM; under setting [4], 517 nM. As to `C[C@@]12CCCCC[C@@]1(O)Cn1cc(C(=O)NCc3ccc(F)cc3F)c(=O)c(O)c1C2=O` [Compound 99], the IC50 is, setting by setting: under setting [1], 3.7 nM; under setting [2], 616 nM.
